Measured values from article PMC10094639, “Novel Antibiotic Resistance Genes Identified by Functional Gene Library Screening in Stenotrophomonas maltophilia and Chryseobacterium spp. Bacteria of Soil Origin” (International Journal of Molecular Sciences, 2023).
≈ marks a conversion by molar mass, not a printed value.

Legend:
[1] = test system: C. soldanellicola; test: organism not typed; set-up: Broth microdilution MIC (Sensititre plates, ARIS 2X) against soil bacterial isolates; conditions: soil
Excerpt: (§1) Six Stenotrophomonas maltophilia and eight Chryseobacterium spp. antibiotic-resistant isolates were used for genomic library construction; all bacteria were isolated from farming field soil in Lithuania during the year 2016 [17, 65]. The isolates were designated as resistant if the MIC of antibiotic value matched EUCAST clinical breakpoints (v. 7.0, 2017, PK/PD (non-species related). Species were identified by matching obtained sequences with a sequence showing the highest maximum identity score from the GenBank database. If the identity of the best match was <99% and the query cover was <96%, only the genus was assigned. All environmental isolates were grown in LB medium at 28 °C. The bacteria were isolated from three farming fields in Lithuania during the year 2016 [17]. The sample collection points represented two different types of farming, i.e., organic and conventional (intensive); in all cases, the type of the soil was sandy loam. The organic farming sites were known not to use inorganic fertilizers or pesticides for a time period of over 20 years and were fertilized only with organic fertilizers (farmyard manure and slurry). Identification of bacterial isolates was based on 16S rRNA fragment sequencing as described previously. All six isolates of S. maltophilia were collected from a conventional winter wheat farming field. Antibiotic-resistant Chryseobacterium spp. isolates were recovered from various fields (conventional winter wheat, conventional rapeseed, and organic rapeseed). Two of the isolates were identified as C. aahli, and another two were identified as C. soldanellicola; for four of the isolates, only the genus could be assigned as Chryseobacterium spp. All selected isolates of S. maltophilia and Chryseobacterium spp. were resistant to at least two classes of antibiotics (β-lactams, aminoglycosides, and/or fluoroquinolones) (Table S1).

[2] = test system: S. maltophilia; test: microbe, parasite or virus in culture; set-up: Broth microdilution MIC (Sensititre plates, ARIS 2X) against soil bacterial isolates; conditions: Stenotrophomonas maltophilia
Excerpt: as §1

[3] = test system: Chryseobacterium sp.; test: microbe, parasite or virus in culture; set-up: Broth microdilution MIC (Sensititre plates, ARIS 2X) against soil bacterial isolates; conditions: Chryseobacterium
Excerpt: as §1

[4] = test system: C. aahli; test: organism not typed; set-up: Broth microdilution MIC (Sensititre plates, ARIS 2X) against soil bacterial isolates; conditions: soil
Excerpt: as §1

[5] = test system: T1, IND-17; test: UV-Vis spectrophotometry, initial hydrolysis rates, […] nm; assay type: biochemical, Chryseobacterium sp.; conditions: 50 mM HEPES pH 7.0, 50 µM ZnCl2, 22 °C
T1 construct: signal peptide removed; pET-28b (NcoI) in E. coli BL21 Tuner (DE3); no tag mentioned

[6] = test system: T1, IND-17; test: as above; assay type: biochemical, Chryseobacterium sp.; conditions: 50 mM HEPES pH 7.0, 50 µM ZnCl2, 22 °C; remark: listed apart in the source
[7] = test system: T2, CHM; test: as above; assay type: biochemical, Chryseobacterium sp.; conditions: 50 mM HEPES pH 7.0, 50 µM ZnCl2, 22 °C
T2 construct: signal peptide removed; pET-28b (NcoI) in E. coli BL21 Tuner (DE3); no tag mentioned

[8] = test system: T1, IND-17; test: as above; assay type: biochemical, Chryseobacterium sp.; conditions: 50 mM HEPES pH 7.0, 50 µM ZnCl2, 22 °C; remark: listed apart in the source
[9] = test system: T2, CHM; test: as above; assay type: biochemical, Chryseobacterium sp.; conditions: 50 mM HEPES pH 7.0, 50 µM ZnCl2, 22 °C; remark: listed apart in the source
[10] = test system: T1, IND-17; test: as above; assay type: biochemical, Chryseobacterium sp.; conditions: 50 mM HEPES pH 7.0, 50 µM ZnCl2, 22 °C; remark: listed apart in the source
[11] = test system: T2, CHM; test: as above; assay type: biochemical, Chryseobacterium sp.; conditions: 50 mM HEPES pH 7.0, 50 µM ZnCl2, 22 °C; remark: listed apart in the source
[12] = test system: T2, CHM; test: as above; assay type: biochemical, Chryseobacterium sp.; conditions: 50 mM HEPES pH 7.0, 50 µM ZnCl2, 22 °C; remark: listed apart in the source
[13] = test system: T1, IND-17; test: as above; assay type: biochemical, Chryseobacterium sp.; conditions: 50 mM HEPES pH 7.0, 50 µM ZnCl2, 22 °C; remark: listed apart in the source

Structure (SMILES)	MIC ([1]; Isolate No.=3-7-16)	MIC ([1]; Isolate No.=4-6-16)	MIC ([2]; Isolate No.=2-1-3)	MIC ([2]; Isolate No.=2-4-11)	MIC ([3]; Isolate No.=2-2-6)	MIC ([4]; Isolate No.=3-7-14)	MIC ([4]; Isolate No.=3-12-27)	MIC ([2]; Isolate No.=2-12-28)	MIC ([3]; Isolate No.=2-4-10)	also measured
NCC[C@H](O)C(=O)N[C@@H]1C[C@H](N)[C@@H](O[C@H]2O[C@H](CN)[C@@H](O)[C@H](O)[C@H]2O)[C@H](O)[C@H]1O[C@H]1O[C@H](CO)[C@@H](O)[C@H](N)[C@H]1O [Amikacin]	32 µg/mL (≈ 54.6 µM)	≤ 8 µg/mL	≤ 8 µg/mL	16 µg/mL (≈ 27.3 µM)	≤ 8 µg/mL	32 µg/mL (≈ 54.6 µM)	≤ 8 µg/mL	–	–	MIC ([2]; Isolate No.=2-8-21): 32 µg/mL (≈ 54.6 µM); MIC ([3]; Isolate No.=2-6-15): 32 µg/mL (≈ 54.6 µM)
CC1(C)S[C@@H]2[C@H](NC(=O)[C@H](N)c3ccccc3)C(=O)N2[C@H]1C(=O)O [Ampicillin]	–	–	–	–	–	–	–	–	–	Km [5]: 470 ± 108 µM
C[C@H]1[C@H](NC(=O)/C(=N\OC(C)(C)C(=O)O)c2csc(N)n2)C(=O)N1S(=O)(=O)O [Aztreonam]	32 µg/mL (≈ 73.5 µM)	> 32 µg/mL	16 µg/mL (≈ 36.7 µM)	≤ 8 µg/mL	> 32 µg/mL	32 µg/mL (≈ 73.5 µM)	–	32 µg/mL (≈ 73.5 µM)	–	–
Cc1nnc(SCC2=C(C(=O)O)N3C(=O)[C@@H](NC(=O)Cn4cnnn4)[C@H]3SC2)s1 [Cefazolin]	32 µg/mL (≈ 70.4 µM)	> 32 µg/mL	32 µg/mL (≈ 70.4 µM)	> 32 µg/mL	> 32 µg/mL	32 µg/mL (≈ 70.4 µM)	–	–	–	Km [6]: 38 ± 12 µM; Km [7]: 167 ± 27 µM
CO/N=C(\C(=O)N[C@@H]1C(=O)N2C(C(=O)[O-])=C(C[N+]3(C)CCCC3)CS[C@H]12)c1csc(N)n1 [Cefepime]	≤ 4 µg/mL	–	≤ 4 µg/mL	–	≤ 4 µg/mL	8 µg/mL (≈ 16.6 µM)	≤ 4 µg/mL	> 32 µg/mL	–	MIC ([2]; Isolate No.=2-12-31): 16 µg/mL (≈ 33.3 µM)
CO[C@@]1(NC(=O)C2SC(=C(C(N)=O)C(=O)O)S2)C(=O)N2C(C(=O)O)=C(CSc3nnnn3C)CS[C@@H]21 (some centres unmarked) [Cefotetan Na]	32 µg/mL (≈ 55.6 µM)	> 32 µg/mL	4 µg/mL (≈ 6.95 µM)	≤ 8 µg/mL	> 32 µg/mL	32 µg/mL (≈ 55.6 µM)	–	–	–	–
CO[C@@]1(NC(=O)Cc2cccs2)C(=O)N2C(C(=O)O)=C(COC(N)=O)CS[C@@H]21 [Cefoxitin]	8 µg/mL (≈ 18.7 µM)	16 µg/mL (≈ 37.4 µM)	32 µg/mL (≈ 74.9 µM)	–	> 32 µg/mL	32 µg/mL (≈ 74.9 µM)	–	> 32 µg/mL	32 µg/mL (≈ 74.9 µM)	MIC ([3]; Isolate No.=2-6-15): 16 µg/mL (≈ 37.4 µM)
COCC1=C(C(=O)O)N2C(=O)[C@@H](NC(=O)/C(=N\OC)c3csc(N)n3)[C@H]2SC1 [Cefpodoxime]	4 µg/mL (≈ 9.36 µM)	8 µg/mL (≈ 18.7 µM)	16 µg/mL (≈ 37.4 µM)	> 16 µg/mL	> 16 µg/mL	16 µg/mL (≈ 37.4 µM)	–	–	–	–
CC(C)(O/N=C(\C(=O)N[C@@H]1C(=O)N2C(C(=O)[O-])=C(C[n+]3ccccc3)CS[C@H]12)c1csc(N)n1)C(=O)O [Ceftazidime]	≤ 1 µg/mL	–	4 µg/mL (≈ 7.32 µM)	2 µg/mL (≈ 3.66 µM)	2 µg/mL (≈ 3.66 µM)	8 µg/mL (≈ 14.6 µM)	4 µg/mL (≈ 7.32 µM)	8 µg/mL (≈ 14.6 µM)	4 µg/mL (≈ 7.32 µM)	Km [7]: 200 ± 41 µM
CO/N=C(\C(=O)N[C@@H]1C(=O)N2C(C(=O)O)=C(CSc3nc(=O)c(O)nn3C)CS[C@H]12)c1csc(N)n1 [Ceftriaxone]	4 µg/mL (≈ 7.21 µM)	8 µg/mL (≈ 14.4 µM)	32 µg/mL (≈ 57.7 µM)	–	> 64 µg/mL	64 µg/mL (≈ 115 µM)	–	> 64 µg/mL	64 µg/mL (≈ 115 µM)	–
CO/N=C(\C(=O)N[C@@H]1C(=O)N2C(C(=O)O)=C(COC(N)=O)CS[C@H]12)c1ccco1 [Cefuroxime]	32 µg/mL (≈ 75.4 µM)	–	32 µg/mL (≈ 75.4 µM)	> 32 µg/mL	> 32 µg/mL	32 µg/mL (≈ 75.4 µM)	–	–	–	Km [6]: 30 ± 5.8 µM; Km [7]: 76 ± 19 µM
O=C(O)c1cn(C2CC2)c2cc(N3CCNCC3)c(F)cc2c1=O [Ciprofloxacin]	≤ 0.5 µg/mL	–	1 µg/mL (≈ 3.02 µM)	–	≤ 0.5 µg/mL	2 µg/mL (≈ 6.04 µM)	≤ 0.5 µg/mL	2 µg/mL (≈ 6.04 µM)	1 µg/mL (≈ 3.02 µM)	MIC ([2]; Isolate No.=2-8-21): ≤ 0.5 µg/mL
C[C@@H](O)[C@H]1C(=O)N2C(C(=O)O)=C(SCCN=CN)C[C@H]12 [Imipenem]	4 µg/mL (≈ 13.4 µM)	–	16 µg/mL (≈ 53.4 µM)	> 16 µg/mL	8 µg/mL (≈ 26.7 µM)	16 µg/mL (≈ 53.4 µM)	–	–	≤ 2 µg/mL	MIC ([3]; Isolate No.=2-8-20): 4 µg/mL (≈ 13.4 µM); Km [8]: 185 ± 19 µM; Km [9]: 389 ± 48 µM
C[C@@H](O)[C@H]1C(=O)N2C(C(=O)O)=C(S[C@@H]3CN[C@H](C(=O)N(C)C)C3)[C@H](C)[C@H]12 [Meropenem]	2 µg/mL (≈ 5.22 µM)	4 µg/mL (≈ 10.4 µM)	≤ 1 µg/mL	2 µg/mL (≈ 5.22 µM)	> 8 µg/mL	8 µg/mL (≈ 20.9 µM)	–	> 8 µg/mL	–	Km [10]: 258 ± 25 µM; Km [11]: 10 ± 2 µM
O=C(Cc1cccs1)N[C@@H]1C(=O)N2C(C(=O)O)=C(/C=C/c3ccc([N+](=O)[O-])cc3[N+](=O)[O-])CS[C@H]12 [Nitrocefin]	–	–	–	–	–	–	–	–	–	Km [12]: 153 ± 10 µM; Km [13]: 152 ± 4.7 µM
O=C1CN(/N=C/c2ccc([N+](=O)[O-])o2)C(=O)N1 [Nitrofurantoin]	64 µg/mL (≈ 269 µM)	≤ 16 µg/mL	128 µg/mL (≈ 537 µM)	> 128 µg/mL	64 µg/mL (≈ 269 µM)	128 µg/mL (≈ 537 µM)	64 µg/mL (≈ 269 µM)	–	32 µg/mL (≈ 134 µM)	–
CCN1CCN(C(=O)N[C@@H](C(=O)N[C@@H]2C(=O)N3[C@@H]2SC(C)(C)[C@@H]3C(=O)O)c2ccccc2)C(=O)C1=O [Piperacillin]	≤ 16 µg/mL	–	64 µg/mL (≈ 124 µM)	≤ 16 µg/mL	32 µg/mL (≈ 61.8 µM)	32 µg/mL (≈ 61.8 µM)	≤ 16 µg/mL	32 µg/mL (≈ 61.8 µM)	≤ 16 µg/mL	MIC ([3]; Isolate No.=2-6-15): 128 µg/mL (≈ 247 µM)
NC[C@H]1O[C@H](O[C@H]2[C@H](O)[C@@H](O[C@H]3O[C@H](CO)[C@@H](O)[C@H](N)[C@H]3O)[C@H](N)C[C@@H]2N)[C@H](N)C[C@@H]1O [Tobramycin]	8 µg/mL (≈ 17.1 µM)	–	≤ 4 µg/mL	–	> 8 µg/mL	8 µg/mL (≈ 17.1 µM)	–	–	–	MIC ([2]; Isolate No.=2-8-21): 8 µg/mL (≈ 17.1 µM)
